Measurements from patent publication US20100216761A1, “NOVEL AZETIDINONES USEFUL AS INHIBITORS OF ELASTASE” (priority 2007, published 2010).

Experiments:
[1] = molecular target: T1, Human Leukocyte Elastase (HLE) (Homo sapiens, UniProt P08246); assay: HLE time-dependent reactivation (off-rate) assay; type: biochemical; conditions: head-to-head with Examples 1 and 3
T1 construct: The PMN lysates were prepared by isolating human neutrophils from whole blood; from tissue; host or cells: human neutrophils (PMN) isolated from whole blood, lysed by sonication in PBS
T1 sequence (P08246 30-267): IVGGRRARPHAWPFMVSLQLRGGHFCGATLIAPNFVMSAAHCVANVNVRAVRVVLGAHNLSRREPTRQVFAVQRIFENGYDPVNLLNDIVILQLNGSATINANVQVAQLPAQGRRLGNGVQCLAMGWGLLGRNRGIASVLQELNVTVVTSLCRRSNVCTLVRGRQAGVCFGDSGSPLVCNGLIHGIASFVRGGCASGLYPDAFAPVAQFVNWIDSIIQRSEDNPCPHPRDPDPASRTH
Experimental: An important and desirable aspect of these mechanism-based HLE inhibitors is also the extent to which the enzyme remains inactivated or, in other words, the rate at which the modified inhibitor comes off the enzyme after the inactivation event has occurred and which then gives back the active HLE enzyme (see Note 2c and 4). This property was assessed in a time-dependent reactivation assay and the results were calculated as a first-order rate constant expressed as their half-lives in hours (t1/2). […] Under head-to-head conditions (n=2) with Examples 1 and 3, the off-rate for the comparator Compound #290 of U.S. Pat. No. 5,591,737 was determined to be 7.1 hrs, or about 2.5-2.6 times as fast.
Elastase was incubated with 100-fold molar excess of inhibitor in TES buffer (0.045M TES, 0.45M NaCl, pH 7.5, 0.1% BSA) at room temperature for 60 minutes. After the incubation was complete, the samples were loaded onto prepared columns (Micro BioSpin Chromatography Columns-Bio-Gel P-6 Columns Bio-Rad Cat# 732-6221; prepared as directed by the manufacturer). […] At specific time points, the filtrate was monitored for elastase activity by adding the filtrate to 1 mM substrate (MeoSucc-AAPV-pNA; Elastin Products Cat# FH237) in TES buffer (0.045M TES, 0.45M NaCl, pH 7.5) and measuring the absorbance at 410 nm. The absorbance was monitored every 10 seconds for 5 minutes. […]

[2] = Liver microsome stability in 4 species: rat; type: in vitro ADME; conditions: substrate 0.5 uM, microsome 0.25 mg/mL
Experimental: (§1) In a separate experiment as exemplified in Table 3, the stability of the current Example 1 and the comparator Compound #290 in incubations with microsome preparations from 4 different species were also determined (Note 5).
(§2) X. S. Tong, et. al., J. of Chromatography, 2006, 833, 165.

[3] = Liver microsome stability in 4 species: monkey; type: in vitro ADME; conditions: substrate 0.5 uM, microsome 0.25 mg/mL
Experimental: as §1, §2

[4] = Rat 7 day oral dose limiting toxicity assessment; type: in vivo; conditions: for mortality: 750 mpk dose group, n=5 per group; for NO Effect Level (NOEL): in vivo, po, 7 days; for Dose limiting toxicity assessment, 25 mpk: p.o. 25 mg per kg per day for 7 days; for Dose limiting toxicity assessment, 25 mpk / Dose limiting toxicity assessment, 100 mpk / Dose limiting toxicity assessment, 750 mpk: mono-L-malic acid salts; for Dose limiting toxicity assessment, 100 mpk: p.o. 100 mg per kg per day for 7 days; for Dose limiting toxicity assessment, 750 mpk: p.o. 750 mg per kg per day for 7 days; for physical signs of toxicity: p.o. 100 mpk dose for 7 days
Experimental: The observations summarized in Table 8 indicate that both Example 1 and Compound #290 have the same NO Effect Level in a Dose Limiting Toxicity assay in the rat (NOEL=100 mpk/day for 7 days for both) (Note 11), and would argue against the use of higher doses of Compound #290 to achieve the same plasma exposure as Example 1 in the clinic.
Example 1 and Compound #290 as their mono-L-malic acid salts were formulated in 0.5% Methocel and dosed p.o. at 25, 100 and 750 mg per k per day (free base equivalent) for 7 days (n=5 animals in each group). During the dosing period observation of any physical signs of toxicity were noted. Upon termination on day 8, a standard battery of blood chemistry and tissue analyses were performed and evaluated for significant effects compared to vehicle controls. […] At the 750 mpk dose level several adverse effects were observed including mortality (⅖ for Example 1 on Day 7 and 8 in the 750 mpk dose group; ⅕ on day 4 for Compound #290 in the 750 mpk dose group).

Structure (SMILES)	off-rate relative to Examples 1 and 3 (times as fast) [1]	% Left @ 30 min [2] [%]	% Left @ 60 min [2] [%]	% Left @ 30 min [3] [%]	% Left @ 60 min [3] [%]	mortality [4]	NO Effect Level (NOEL) [4] [mpk/day]	Dose limiting toxicity assessment, 25 mpk ([4]; 25 mg/kg)	Dose limiting toxicity assessment, 100 mpk ([4]; 100 mg/kg)	Dose limiting toxicity assessment, 750 mpk [4]	physical signs of toxicity [4]	Dose limiting toxicity assessment, 25 mpk ([4]; listed as xample 1, 25 mg/kg)	Dose limiting toxicity assessment, 100 mpk ([4]; listed as xample 1, 100 mg/kg)
CCC[C@@H](NC(=O)N1C(=O)C(CC)(CC)[C@@H]1Oc1ccc(C(=O)N(C)CCN(C)C)cc1)c1ccc(OC)cc1 [Compound #290, reference compound]	2.5-2.6 times	99	93	90	67	⅕	100	no adverse effects	no adverse effects	Significant toxicity observed	salivation		
CCC[C@@H](NC(=O)N1C(=O)C(CC)(CC)[C@@H]1Oc1ccc(C(=O)N(CC)CCN(C)C)cc1)c1ccc(OC(F)(F)F)cc1 [Example 1, 2-(S)-[4-(((2-(Dimethylamino)ethyl)ethylamino)carbonyl)phenoxy]-3,3-diethyl-N-[1-(R)-(4-(trifluoromethoxy)phenyl)butyl]-4-oxo-1-azetidinecarboxamide]		96	94	91	77	⅖	100	no adverse effects	no adverse effects	Significant toxicity observed	salivation	No effects	No effects
